Test results reported in patent publication US20240239759A1, “ISOXAZOLINE COMPOSITIONS AND THEIR USE AS ANTIPARASITICS” (Intervet Inc., priority 2007, published 2024).
“And” between values parts separate entries of the source, which are not always exact repeats. Equal values may be shown once.

Tests used:
[1] = system: cat fleas (Ctenocephalides felis); assay: Adult fleas fed on artificial membranes with spiked blood (Example 1); conditions: 48 hr continuous feeding
Protocol: Adult fleas (20-30) were fed on artificial membranes with blood spiked with Compound 10-1, Compound 11-1, or a positive control (fipronil) at a concentration of 100, 10, or 1 ppm. Flea efficacy was assessed after 48 hr of continuous feeding by comparing the number of killed and damaged fleas with the number of fed fleas. Flea efficacy was 100% for Compound 10-1, Compound 11-1, and fipronil at 100, 10, and 1 ppm.

adult fleas (C. felis) = assay: Efficacy against fleas on mice (Example 2A); assay type: in vivo, Ctenocephalides felis
Protocol: (§1) Mice were divided into groups of three, and treated topically with 100 ppm body weight, orally with 10 mg/kg bodyweight, or subcutaneously with 10 mg/kg bodyweight of Compound 11-1, fipronil (positive control), or nothing (negative control). These mice were sedated and infested with adult fleas (C. felis) 1, 3, 6, and 24 hr after treatment. Fleas were recovered from the mice after approximately 30 minutes of feeding. The assessment of flea inhibition (% of dead and damaged fleas) was conducted 1 and 24 hr after each infestation.

M. musculinus = assay: Efficacy against mites on mice (Example 2B); assay type: in vivo, Myocoptes musculinus; parameters: key: “+”=low infestation rate; “++”=medium infestation rate; “+++”=high infestation rate; conditions: repeated 7 days later
Protocol: The mice were divided into groups of three, and treated topically with 100 ppm body weight, orally with 10 mg/kg body weight, or subcutaneously with 10 mg/kg body weight of Compound 11-1, fipronil (positive control), or nothing (negative control). This treatment was then repeated 7 days later. The infestation rate per mouse (“+”=low infestation rate, “++”=medium infestation rate, “+++”=high infestation rate) was assessed repeatedly on days 1, 6, 9, 13, and 23. Efficacy was defined as the inhibition of the mite infestation rate on treated mice relative to the negative control group.

[2] = system: juvenile soft ticks (O. moubata); assay: Efficacy against soft (Argaside) ticks on Guinea pigs (Example 2C); assay type: in vivo, Ornithodoros moubata; conditions: Guinea pig
Protocol: (§2) Six Guinea pigs were treated orally, subcutaneously, or intraperitoneally with 10 mg/kg bodyweight of Compound 11-1 or fipronil (positive control). The Guinea pigs were locally co-infested with juvenile soft ticks (O. moubata) and bed bugs (C. lectularius) once before the treatment, and at different time points after treatment between days 2 and 50. Ten engorged ticks/bed bugs were collected to assess the percentage of killed individuals per species 24 hr after each infestation.
(§3) For Guinea pigs treated with Compound 11-1, the ticks and bed bugs died within 1 to 5 hr following infestation up to Day 29, and within 8 to 24 hr after day 29. For Guinea pigs treated with fipronil, ticks and bed bugs died within 1 to 7 hr after infestation up to Day 29, and within 8 to 24 hr after day 29.

[3] = system: bed bugs (C. lectularius); assay: Efficacy against bed bugs on Guinea pigs (Example 2C); assay type: in vivo, Cimex lectularius; conditions: Guinea pig
Protocol: as §2, §3

[4] = system: brown dog ticks, R. sanguineus (nymphs); assay: Efficacy against hard (Ixodide) ticks on Guinea pigs (Example 2D); assay type: in vivo, Rhipicephalus sanguineus; conditions: all treated groups of Study 1 (100 ppm dip, 10 mg/kg oral, 10 mg/kg subcutaneous) and Study 2 (25 ppm dip, 2.5 mg/kg oral, 2.5 mg/kg subcutaneous), Day 4 to Day 8
Protocol: (§4) Guinea pigs were divided into groups of three. Each group was subjected to one of the following treatments with either Compound 11-1, fipronil (positive control), or neither (negative control):
(§5) • 1. 100 ppm body weight topical administration by animal dip • 2. 10 mg/kg body weight oral administration • 3. 10 mg/kg body weight subcutaneous administration • 4. No treatment (negative control)
(§6) • 1. 25 ppm body weight topical administration by animal dip • 2. 2.5 mg/kg body weight oral administration • 3. 2.5 mg/kg body weight subcutaneous administration • 4. No treatment (negative control) One day before the treatment, all the Guinea pigs were infested with 100 vital juvenile (“nymph”) hard ticks (brown dog ticks, R. sanguineus). Engorged, detached nymphs were counted (eN) from Day 4 to Day 8 to calculate the efficacy of the treatments according to following formula: […]
In addition, collected ticks were assessed for molting into the next stage.

[5] = Side effects in mice, flea study (Example 2A); assay type: in vivo; conditions: topical 100 ppm, oral or subcutaneous 10 mg/kg
Protocol: as §1

[6] = Side effects in Guinea pigs, soft tick and bed bug study (Example 2C); assay type: in vivo
Protocol: as §2

[7] = Side effects in Guinea pigs, hard tick studies (Example 2D); assay type: in vivo; conditions: Guinea pigs; either study (topical dip, oral, subcutaneous)
Protocol: as §4, §5, §6
In the first study, 32 engorged R. sanguineus nymphs were collected from animals of the untreated negative control group. And in the second study, 75 engorged R. sanguineus nymphs were collected from animals of the untreated negative control group. […] Thus, the inhibition of engorged nymphs for both Compound 11-1 and fipronil was 100%.

Compound: Cc1cc(C2=NOC(c3cc(Cl)cc(Cl)c3)(C(F)(F)F)C2)ccc1C(=O)NCC(=O)NCC(F)(F)F (racemic) [Compound 11-1, 4-[5-(3,5-dichlorophenyl)-5-trifluoromethyl-4,5-dihydroisoxazol-3-yl]-2-methyl-N-[(2,2,2-trifluoro-ethylcarbamoyl)-methyl]-benzamide]
- Flea efficacy ([1]; blood spiked at 1 ppm): 100%
- Flea efficacy ([1]; blood spiked at 10 ppm): 100%
- Flea efficacy ([1]; blood spiked at 100 ppm): 100%
- Flea inhibition (% of dead and damaged fleas) (adult fleas (C. felis); oral 10 mg/kg, infested 1 hr after treatment, assessed 1 hr after infestation): 43.3%
- Flea inhibition (% of dead and damaged fleas) (adult fleas (C. felis); oral 10 mg/kg, infested 1 hr after treatment, assessed 24 hr after infestation): 67.7%
- Flea inhibition (% of dead and damaged fleas) (adult fleas (C. felis); oral 10 mg/kg, infested 3 hr after treatment, assessed 1 hr after infestation): 44.3%
- Flea inhibition (% of dead and damaged fleas) (adult fleas (C. felis); oral 10 mg/kg, infested 3 hr after treatment, assessed 24 hr after infestation): 48.7%
- Flea inhibition (% of dead and damaged fleas) (adult fleas (C. felis); oral 10 mg/kg, infested 6 hr after treatment, assessed 1 hr after infestation): 17.7%
- Flea inhibition (% of dead and damaged fleas) (adult fleas (C. felis); oral 10 mg/kg, infested 6 hr after treatment, assessed 24 hr after infestation): 26.7%
- Flea inhibition (% of dead and damaged fleas) (adult fleas (C. felis); oral 10 mg/kg, infested 24 hr after treatment, assessed 1 hr after infestation): 37.7%
- Flea inhibition (% of dead and damaged fleas) (adult fleas (C. felis); oral 10 mg/kg, infested 24 hr after treatment, assessed 24 hr after infestation): 82.0%
- Flea inhibition (% of dead and damaged fleas) (adult fleas (C. felis); subcutaneous 10 mg/kg, infested 1 hr after treatment, assessed 1 hr after infestation): 7.7%
- Flea inhibition (% of dead and damaged fleas) (adult fleas (C. felis); subcutaneous 10 mg/kg, infested 1 hr after treatment, assessed 24 hr after infestation): 40.0%
- Flea inhibition (% of dead and damaged fleas) (adult fleas (C. felis); subcutaneous 10 mg/kg, infested 3 hr after treatment, assessed 1 hr after infestation): 31.0%
- Flea inhibition (% of dead and damaged fleas) (adult fleas (C. felis); subcutaneous 10 mg/kg, infested 3 hr after treatment, assessed 24 hr after infestation): 42.3%
- Flea inhibition (% of dead and damaged fleas) (adult fleas (C. felis); subcutaneous 10 mg/kg, infested 6 hr after treatment, assessed 1 hr after infestation): 21.0%
- Flea inhibition (% of dead and damaged fleas) (adult fleas (C. felis); subcutaneous 10 mg/kg, infested 6 hr after treatment, assessed 24 hr after infestation): 36.7%
- Flea inhibition (% of dead and damaged fleas) (adult fleas (C. felis); subcutaneous 10 mg/kg, infested 24 hr after treatment, assessed 1 hr after infestation): 100%
- Flea inhibition (% of dead and damaged fleas) (adult fleas (C. felis); subcutaneous 10 mg/kg, infested 24 hr after treatment, assessed 24 hr after infestation): 100%
- Flea inhibition (% of dead and damaged fleas) (adult fleas (C. felis); topical 100 ppm body weight, infested 1 hr after treatment, assessed 1 hr after infestation): 0%
- Flea inhibition (% of dead and damaged fleas) (adult fleas (C. felis); topical 100 ppm body weight, infested 1 hr after treatment, assessed 24 hr after infestation): 97.7%
- Flea inhibition (% of dead and damaged fleas) (adult fleas (C. felis); topical 100 ppm body weight, infested 3 hr after treatment, assessed 1 hr after infestation): 0%
- Flea inhibition (% of dead and damaged fleas) (adult fleas (C. felis); topical 100 ppm body weight, infested 3 hr after treatment, assessed 24 hr after infestation): 99.0%
- Flea inhibition (% of dead and damaged fleas) (adult fleas (C. felis); topical 100 ppm body weight, infested 6 hr after treatment, assessed 1 hr after infestation): 0%
- Flea inhibition (% of dead and damaged fleas) (adult fleas (C. felis); topical 100 ppm body weight, infested 6 hr after treatment, assessed 24 hr after infestation): 81.0%
- Flea inhibition (% of dead and damaged fleas) (adult fleas (C. felis); topical 100 ppm body weight, infested 24 hr after treatment, assessed 1 hr after infestation): 2%
- Flea inhibition (% of dead and damaged fleas) (adult fleas (C. felis); topical 100 ppm body weight, infested 24 hr after treatment, assessed 24 hr after infestation): 93.3%
- Mite infestation rate per mouse (M. musculinus; oral 10 mg/kg, Day 1): + to ++
- Mite infestation rate per mouse (M. musculinus; oral 10 mg/kg, Day 6): ++
- Mite infestation rate per mouse (M. musculinus; oral 10 mg/kg, Day 9, 10 mg/kg): 2 mice: none and 1 mouse: +
- Mite infestation rate per mouse (M. musculinus; oral 10 mg/kg, Day 13): none
- Mite infestation rate per mouse (M. musculinus; oral 10 mg/kg, Day 23): none
- Mite infestation rate per mouse (M. musculinus; subcutaneous 10 mg/kg, Day 1): + to ++
- Mite infestation rate per mouse (M. musculinus; subcutaneous 10 mg/kg, Day 6): ++
- Mite infestation rate per mouse (M. musculinus; subcutaneous 10 mg/kg, Day 9): none
- Mite infestation rate per mouse (M. musculinus; subcutaneous 10 mg/kg, Day 13): none
- Mite infestation rate per mouse (M. musculinus; subcutaneous 10 mg/kg, Day 23): none
- Mite infestation rate per mouse (M. musculinus; topical 100 ppm body weight, Day 1): +
- Mite infestation rate per mouse (M. musculinus; topical 100 ppm body weight, Day 6): 2 mice: none and 1 mouse: +
- Mite infestation rate per mouse (M. musculinus; topical 100 ppm body weight, Day 9): none
- Mite infestation rate per mouse (M. musculinus; topical 100 ppm body weight, Day 13): none
- Mite infestation rate per mouse (M. musculinus; topical 100 ppm body weight, Day 23): none
- Efficacy against soft ticks (killed 24 hr after infestation) ([2]; intraperitoneal 10 mg/kg, after Day 31): No efficacy was detected after Day 31.
- Efficacy against soft ticks (killed 24 hr after infestation) ([2]; intraperitoneal 10 mg/kg, up to Day 31): 100% efficacy was observed up to Day 31.
- Efficacy against soft ticks (killed 24 hr after infestation) ([2]; oral 10 mg/kg, up to Day 31): 100% efficacy was observed up to Day 31.
- Efficacy against soft ticks (killed 24 hr after infestation) ([2]; subcutaneous 10 mg/kg, after Day 33): No efficacy was detected after Day 33.
- Efficacy against soft ticks (killed 24 hr after infestation) ([2]; subcutaneous 10 mg/kg, up to Day 31): 100% efficacy was observed up to Day 31.
- Efficacy against soft ticks (killed 24 hr after infestation) ([2]; subcutaneous 10 mg/kg, up to Day 33): 70% efficacy was observed up to Day 33.
- Efficacy against bed bugs (killed 24 hr after infestation) ([3]; intraperitoneal 10 mg/kg, after Day 35): 35. No efficacy was detected after Day 35.
- Efficacy against bed bugs (killed 24 hr after infestation) ([3]; intraperitoneal 10 mg/kg, up to Day 33): 100% efficacy was observed up to Day 33.
- Efficacy against bed bugs (killed 24 hr after infestation) ([3]; oral 10 mg/kg, up to Day 31): 100% efficacy was observed up to Day 31.
- Efficacy against bed bugs (killed 24 hr after infestation) ([3]; subcutaneous 10 mg/kg, after Day 42): 42. No efficacy was detected after Day 42.
- Efficacy against bed bugs (killed 24 hr after infestation) ([3]; subcutaneous 10 mg/kg, up to Day 35): 100% efficacy was observed up to Day 35.
- Efficacy against bed bugs (killed 24 hr after infestation) ([3]; subcutaneous 10 mg/kg, up to Day 40): 90% efficacy was observed up to Day 40.
- Engorged R. sanguineus nymphs collected [4]: no nymphs were collected
- Inhibition of engorged nymphs [4]: 100%
- Side effects [5]: No side effects were observed
- Death of the orally treated Guinea pig (Animal No. 1) after Day 31 ([6]; Guinea pig, oral 10 mg/kg, without clinical symptoms): not considered to be treatment-related
- Side effects ([6]; Guinea pigs, oral, subcutaneous or intraperitoneal 10 mg/kg): No side effects were observed
- Side effects [7]: No side effects were observed
